Results reported in patent US4829078A, “3-phenoxy (or phenylthio)--cyclopentanecarbonylamino acid analogues” (Ono Pharmaceutical Co., Ltd., priority 1985, dated 1989).

What was measured:
[1] = acute toxicity test in mice by intravenous administration; conditions: mouse, in vivo
Experimental: For example, in the acute toxicity test in mice by intravenous administration, LD50 value of compounds of example 1 and 1-(c) is the dose of between 200 and 400 mg/kg.

[2] = system: organ slice of cat cerebral cortex; test: inhibition test on cerebral edema using organ slice of cat cerebral cortex (NaHCO3-stimulated swelling); format: cell-based; conditions: Felis catus, 50 min; gray matter slices, 50 minutes at 37° C., pH 7.4, NaHCO3 as stimulating agent of swelling; read-out: Inhibitory activity on cerebral edema (IC50)
Experimental: The inhibition test on cerebral edema using organ slice of cat cerebral cortex
The test was carried out by the method described in Journal of Medicinal Chemistry, Vol. 25 (No. 5), 567 (1982).
That is, brain was isolated from a cat (weighing 2≈4 kg), slices of about 1 mm in thickness was prepared, the white matter substance was removed, and the gray matter substance (100≈150 mg a test) was used for a sample. The sample was added to the following incubation medium and incubated for 50 minutes at 37° C. After the incubation, the sample was immediately weighed again to determine the swelling weight of the sample. incubation medium (osmotic pressure, 280≈290 mOsm/l)
1. Hepes Buffer (pH 7.4) . . . 2.365 ml
adjusted to pH 7.4 by NaOH
2. test compounds [dissolved in the presence of tris(hydroxymethyl)aminomethane] or water . . . 0.01 ml
3. 0.2M NaHCO3 . . . 0.125 ml (dissolved by Hepes Buffer, giving the final concentration of 10 mM in medium) […]
(C) A percentage of swelling when a slice sample was added to incubation medium comprising Hepes Buffer, the test compounds in various concentrations and NaHCO3. Above-mentioned (A), (B) and (C) were determined. Inhibition percentage of the test compounds was calculated by the following equation: [formula] IC50 value was determined by dose-response curve as a concentration in which inhibition percentage was 50.

Which LD50 [1] does the source give for `O=C(O)CC[C@H](NC(=O)[C@H]1CC[C@H](Oc2ccc(C(=O)c3ccccc3)c(Cl)c2Cl)C1)C(=O)O` [Example 1, N-{(1S,3S)-3-(2,3-dichloro-4-benzoylphenoxy)cyclopentanecarbonyl}glutamic acid] here?
Its LD50 is 200 to 400 mg/kg.

And the IC50 [2]?
Its IC50 is 3 µM.

Which LD50 [1] does the source give for `C[C@H](NC(=O)[C@H]1CC[C@H](Oc2ccc(C(=O)c3ccccc3)c(Cl)c2Cl)C1)C(=O)O` [1-(c), N-{(1S,3S)-3-(2,3-dichloro-4-benzoylphenoxy)cyclopentanecarbonyl}alanine] here?
Its LD50 is 200 to 400 mg/kg.

What about the IC50 [2] of the same molecule?
Its IC50 is 0.5 µM.
